Reference: US20070098787A1, “Composition for preventing and treating varicose veins of lower extremities” (MOCHIDA PHARMACEUTICAL CO., LTD., priority 2003, published 2007)

System: varicose veins of lower extremities
Experiment: Case report: patient with varicose veins of lower extremities, Dorner replaced with EPADEL S
Type: in vivo, human
Details: person
Method: A person diagnosed with hypertension, diabetes, hyperlipidemia, and varicose veins of lower extremities (serious conditions with multiple dilatations, winding varices, and skin pigmentation in both legs) was administered with Dorner (trade name; manufactured by Toray Industries, Inc.; generic name, beraprost sodium; a therapeutic agent for chronic artery occlusion) in expectation of therapeutic effect on varicose veins of lower extremities together with Adalat L (trade name; manufactured by Bayer; generic name, nifedipine; coronary vasodilator), Basen (trade name; manufactured by Takeda Pharmaceutical Company Limited; generic name, voglibose; α-glucosidase inhibitor), Lochol (trade name; manufactured by Ciba Geigy Japan Ltd.; generic name, fluvastatin sodium; HMG-CoA reductase inhibitor), and NU-LOTAN (trade name; manufactured by Banyu Pharmaceutical Co., Ltd.; generic name, losartan potassium; angiotensin II receptor antagonist). […] Accordingly, Dorner was replaced with EPADEL S (trade name; manufactured by Mochida Pharmaceutical Co., Ltd.; generic name, ethyl eicosapentate (EPA-E)) at a dose of 600 mg×3 packets per day. […] The skin pigmentation also disappeared. […] No therapeutic method was changed except the change of the drug from Dorner to EPADEL S.

[1] = 600 mg×3 packets per day, after about 1 month, Dorner replaced, other medication unchanged

Compound: CC#CCC(C)[C@H](O)/C=C/[C@@H]1[C@H]2c3cccc(CCCC(=O)O)c3O[C@H]2C[C@H]1O (mixture of isomers) [Dorner, beraprost sodium]
- improvement in the varicose veins of lower extremities (serious conditions in both legs, Dorner given together with Adalat L, Basen, Lochol and NU-LOTAN, after the medication): No improvement

Compound: CC/C=C\C/C=C\C/C=C\C/C=C\C/C=C\CCCC(=O)OCC [EPADEL S, ethyl eicosapentate]
- adverse event presumably caused by the drug (600 mg×3 packets per day, about 1 month): No adverse event
- skin pigmentation (600 mg×3 packets per day, after about 1 month): disappeared
- varicose veins in the left leg [1]: substantial improvement
- varicose veins in the right leg [1]: substantial disappearance
